Data on four molecules can be found in PMC11887051, “Discovery of ONO-2920632 (VU6011887): A Highly Selective and CNS Penetrant TREK-2 (TWIK-Related K+ Channel 2) Preferring Activator In Vivo Tool Compound” (ACS Chemical Neuroscience, 2025).

Series [1] is described as follows: rat predicted hepatic clearance (hepatic microsomes). It is filed as in vitro ADME. The protocol:
Intrinsic clearance: Human or rat hepatic microsomes (0.5 mg/mL) and 1 µM test compound were incubated in 100 mM potassium phosphate pH 7.4 buffer with 3 mM MgCl2 at 37 °C with constant shaking. After a 5 min preincubation, the reaction was initiated by the addition of NADPH (1 mM). At selected time intervals (0, 3, 7, 15, 25, and 45 min), aliquots were taken and subsequently placed into a 96-well plate containing cold acetonitrile with internal standard (50 ng/mL carbamazepine). Plates were then centrifuged at 3000 rcf (4 °C) for 10 min, and the supernatant was transferred to a separate 96-well plate and diluted 1:1 with water for LC/MS/MS analysis. The in vitro half-life ( 1/2, min, Eq. 1), intrinsic clearance (CLint, mL/min/kg, Eq. 2), and subsequent predicted hepatic clearance (CLhep, mL/min/kg, Eq. 3) was determined employing the […]
where k represents the slope from linear regression analysis of the natural log percent remaining of a test compound as a function of incubation time […]
(2) CLint = in vitroT1/2 x mg microsomes x gram liver x kg body wt ascale-up factors: of 20 (human) or 45 (rat) […]
where Qh (hepatic blood flow, mL/min/kg) is 21 (human) or 70 (rat).
LC/MS/MS Bioanalysis of Samples from Plasma Protein Binding and Intrinsic Clearance […]
Samples were analyzed on a Thermo Electron TSQ Quantum Ultra triple quad mass spectrometer (San Jose, CA) via electrospray ionization (ESI) with two Themo Electron Accella pumps (San Jose, CA), and a Leap Technologies CTC PAL autosampler (Carrboro, NC). Analytes were separated by gradient elution on a dual column system with two Thermo Hypersil Gold (2.1 x 30 mm, 1.9 µm) columns (San Jose, CA) thermostated at 40 °C. HPLC mobile phase A was 0.1% formic acid in water and mobile phase B was 0.1% formic acid in acetonitrile. The gradient started […]
for 0.2 min; returned to 10% B in 0.1 min. The total run time was 1.3 min and the HPLC flow rate was 0.8 mL/min. While pump 1 ran the gradient method, pump 2 equilibrated the alternate column isocratically at 10% B. Compound optimization, data collection, and processing was performed using Thermo Electron's QuickQuan software (v2.3) and Xcalibur (v2.0.7 SP1).

For series [2], the target named is T1, mouse TREK-1 (Mus musculus, UniProt P97438).
T1 sequence (P97438 1-426): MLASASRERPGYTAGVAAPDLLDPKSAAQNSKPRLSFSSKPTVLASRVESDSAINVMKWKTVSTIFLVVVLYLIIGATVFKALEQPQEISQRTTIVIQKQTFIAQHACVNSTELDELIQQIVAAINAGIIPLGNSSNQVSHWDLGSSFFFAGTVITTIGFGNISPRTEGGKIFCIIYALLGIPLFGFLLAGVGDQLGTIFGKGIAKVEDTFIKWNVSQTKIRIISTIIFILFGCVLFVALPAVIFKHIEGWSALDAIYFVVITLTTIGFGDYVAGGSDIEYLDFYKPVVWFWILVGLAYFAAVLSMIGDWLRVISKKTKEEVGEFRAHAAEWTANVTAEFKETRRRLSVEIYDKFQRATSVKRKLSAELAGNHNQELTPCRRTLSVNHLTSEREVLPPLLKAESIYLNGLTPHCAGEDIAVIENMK
Kind of series: mouse TREK-1 MPC assay. It is filed as cell-based. To be noted: manual patch clamp. Background: The patch-clamp technique gives a direct electrical read-out from membranes.

Series [3] concerns the target T2, mouse TREK-2 (Mus musculus, UniProt Q8BUW1).
T2 sequence (Q8BUW1 1-535): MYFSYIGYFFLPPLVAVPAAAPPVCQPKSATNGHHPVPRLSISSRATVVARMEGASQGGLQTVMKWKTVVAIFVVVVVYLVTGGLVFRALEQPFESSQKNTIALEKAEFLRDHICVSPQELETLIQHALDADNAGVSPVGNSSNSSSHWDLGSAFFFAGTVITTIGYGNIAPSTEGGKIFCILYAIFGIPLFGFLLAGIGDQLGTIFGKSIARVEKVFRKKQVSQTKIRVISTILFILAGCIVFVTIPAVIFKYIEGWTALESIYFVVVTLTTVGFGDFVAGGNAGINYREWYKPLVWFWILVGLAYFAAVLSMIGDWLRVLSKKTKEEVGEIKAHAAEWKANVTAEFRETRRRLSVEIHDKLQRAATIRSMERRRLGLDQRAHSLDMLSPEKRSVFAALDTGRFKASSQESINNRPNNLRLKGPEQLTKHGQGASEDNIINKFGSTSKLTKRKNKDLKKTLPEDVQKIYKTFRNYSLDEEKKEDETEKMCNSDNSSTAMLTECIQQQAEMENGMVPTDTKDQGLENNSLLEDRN
Kind of series: mouse TREK-2 MPC assay. The conditions noted are these: for EC50 / Emax: mouse, manual patch clamp; for TREK-2 preference (mouse MPC): TREK-2 over TREK-1, mouse MPC. It is filed as cell-based.

Structures are written as SMILES.

With `CS(=O)(=O)Nc1ccc(C(=O)NCc2ccc(Cl)cc2Cl)cc1` [Compound 13], the “rat CLhep (predicted hepatic clearance)” value in series [1] is recorded as 17.4 mL/min/kg.

For `O=C(NCc1ccc(Br)cc1Cl)c1ccc(-c2ncn[nH]2)cc1` [Compound 14a], in series [2], it took 1.9 µM to reach a half-maximal effect (EC50) and the Emax – broadly, the size of the effect at its maximum, as opposed to the concentration needed – is 94%. Also, in series [3], the EC50 (as a rule, the concentration that produces a half-maximal response) was determined as 0.61 µM and the maximum response (Emax) worked out at 97%.

For `Cc1cc(OC(F)(F)F)ccc1CNC(=O)c1ccc2ncnn2c1` [Compound 19a], in series [2], it took 5 µM to reach a half-maximal effect (EC50) and the Emax worked out at 106%. Besides, in series [3], the “TREK-2 preference (mouse MPC)” value is listed as 33 fold, the EC50 was 0.15 µM and the Emax amounted to 105%. Besides, the “rat CLhep (predicted hepatic clearance)” value in series [1] is listed as 5.7 mL/min/kg.

In series [2], `O=C(NCc1ccc(OC(F)(F)F)cc1F)c1ccc2ncnn2c1` [Compound 19b] showed an EC50 of 2.7 µM and an Emax of 109%. Further, in series [3], the “TREK-2 preference (mouse MPC)” value was 4.7 fold, the EC50 stood at 0.57 µM and the Emax turned out to be 105%. Also, the “rat CLhep (predicted hepatic clearance)” value in series [1] is reported as 2.9 mL/min/kg.
